# Tests used:
# [1] = tested on: Cholesterol Biosynthesis in CHO Cells; assay: In Vitro Assay for Inhibition of Cholesterol Biosynthesis in CHO Cells; assay type: cell-based, Chinese Hamster; settings: Cricetulus griseus, 14C-acetate incorporation into cholesterol, 16-18 h incubation with compound
# Experimental: Chinese Hamster ovary (CHO) cells were seeded at 1×10^5 cells per 60-mm Petri dish and incubated at 37° C. in F-12 medium supplemented with fetal calf serum (5%). After 24 h, the medium was aspirated and replaced with delipidated calf serum in F-12 medium containing the test compounds. At various concentrations, either ethanol or dimethyl sulfoxide was used to dissolve the test compounds to a final concentration of 0.1% in the cell medium. Controls contained the vehicle alone. After incubation for 16-18 h, ^14 C-acetate (20 μM final concentration) was added and incubation continued for 5.5 h. […] The cells were then scraped off the plates with a rubber policeman into saline (2 mL). An aliquot for protein was taken, and the remainder of the cell suspension was centrifuged at 800×g for 10 min. The supernatant was discarded and the pellet extracted by vortexing 15 s in chloroform:methanol (2 mL of 2:1). […] NaCl (0.4 mL) was added, vortexed, and centrifuged, and the top layer was discarded. A portion of the upper phase mixture of chloroform:methanol:water (0.4 mL of 3:48:47) was added and gently swirled to avoid mixing with the bottom layer. The resultant samples were centrifuged, and the top layer was discarded. The procedure was repeated before methanol was finally added to combine the two layers and the solvent was evaporated. Chloroform (200 μL) was added to the residue and an aliquot (150 μL) taken. To the aliquot was added cholesterol (40 μg in 20 μL), and the samples were concentrated. The lipids were dissolved in chloroform (50 μL) and spotted on silica gel G thin-layer chromatography plates. After development in hexane:ether:acetic acid (80:20:1), the ^14 C-cholesterol spot was located with iodine vapor and scraped into a scintillation vial, and the radioactivity was counted with a scintillation counter.
# [2] = tested on: Cholesterol Levels in Plasma of Rats; assay: Assay for Lowering Cholesterol Levels in Rats with Oral Administration of Test Compound 15; assay type: in vivo, Male Sprague-Dawley rats; settings: rat plasma, gavage, mean ± S.E.
# Experimental: Male Sprague-Dawley rats weighing 120 to 150 g were used. The animals were placed on a cholesterol-free diet immediately upon arrival and housed in a room with a reverse light cycle. One week after they had adapted to the light cycle, the experiment was begun by gavaging the animals three times daily with various amounts of test compound 13 suspended in 1.0 mL of saline. The control group received 1.0 mL of saline alone. On the seventh day of the experiment, sodium 1-^14 C! acetate (20 μCi/rat) was injected intraperitoneally 30 min after the oral administration (gavage) of test compounds and 2 h before the mid-dark point in the diurnal cycle; 4 h after the ^14 C-acetate injection, the animals were killed and blood samples were collected after decapitation. Plasma was obtained by centrifuging blood in an EDTA-treated centrifuge tube at 3000 rpm for 10 min. Cholesterol synthesis was measured by determining the level of ^14 C-labeled nonsaponifiable lipid present in 1.0 mL of plasma; 1.0 mL of plasma was first mixed with 1.0 mL of saline, followed by 5.0 mL of 10% KOH in absolute ethanol. Samples were saponified at 75° C. for 1 h. After cooling, 44,000 dpm, 0.5 nmol of 1,2-^3 H! cholesterol was added to each sample as an internal standard for calculating recovery through the extraction procedure. Samples were extracted once with 5 mL of petroleum ether, and the organic phase was backwashed with 5 mL of saline. The extracts were dried on a nitrogen evaporator, and the residue was reconstituted into 0.5 mL of CHCl3 -MeOH (2:1). The 0.5-mL reconstituted samples were transferred into counting vials containing 2 mL of ethanol, and both ^3 H and ^14 C were counted in 10 mL of scintillation fluid. The ^3 H-cholesterol internal standard recovery value from each sample was used to correct each sample to 100% recovery of ^14 C-cholesterol. The total cholesterol level and HDL in each plasma sample was also measured. The comparison between test groups and the control group was evaluated for both cholesterol levels and ^14 C-acetate incorporation.
# (c.) Assay for Lowering Cholesterol Levels in Rats with Oral Administration of Test Compound 15:
# The experiment was carried out as described in (b.). However, in this experiment, blood was drawn on days 0, 3 and 7. Total cholesterol levels and HDL were measured on these blood samples.
compound,measurement,setting,value
C[C@H](CCCC(C)(C)O)[C@H]1CC[C@H]2[C@@H]3CC=C4C[C@@H](O)CC[C@]4(C)[C@H]3CC[C@]12C,IC50,[1],350 nM
CC(C)CCC[C@@H](C)[C@H]1CC(=O)C2=C3[C@H](O)C[C@H]4C[C@@H](O)CC[C@]4(C)[C@H]3CC[C@@]21C,IC50,[1],1600 nM
CC(C)CCC[C@@H](C)[C@H]1C[C@H]2C3=C4[C@@H](C[C@H]5C[C@@H](O)CC[C@]5(C)[C@H]4CC[C@@]31C)n1c(=O)c3ccccc3c(=O)n12,IC50,[1],2100 nM
CCOC(=O)N1[C@@H]2C[C@H]3C[C@@H](O)CC[C@]3(C)[C@H]3CC[C@@]4(C)C(=C23)[C@H](C[C@@H]4[C@H](C)CCCC(C)C)N1C(=O)OCC,IC50,[1],800 nM
CCOC(=O)N1[C@@H]2C[C@H]3C[C@@H](OC(=O)c4ccccc4)CC[C@]3(C)[C@H]3CC[C@@]4(C)C(=C23)[C@H](C[C@@H]4[C@H](C)CCCC(C)C)N1C(=O)OCC,IC50,[1],1300 nM
CC(C)CCC[C@@H](C)[C@H]1C[C@H]2C3=C4[C@@H](C[C@H]5C[C@@H](O)CC[C@]5(C)[C@H]4CC[C@@]31C)N(C)N2C,IC50,[1],1600 nM
C[C@H](CCCC(C)(C)O)[C@H]1Cc2nnc3c4c2[C@]1(C)CC[C@@H]4[C@@]1(C)CC[C@H](O)C[C@@H]1C3,IC50,[1],3400 nM
C[C@H](CCCC(C)(C)F)[C@H]1Cc2nnc3c4c2[C@]1(C)CC[C@@H]4[C@@]1(C)CC[C@H](O)C[C@@H]1C3,IC50,[1],160 nM
CC(C)[C@@H](C)/C=C/[C@@H](C)[C@H]1Cc2nnc3c4c2[C@]1(C)CC[C@@H]4[C@@]1(C)CC[C@H](O)C[C@@H]1C3,IC50,[1],110 nM
CC(C)CCC[C@@H](C)[C@H]1C[C@H](O)C2=C3C(=O)C[C@H]4C[C@@H](O)CC[C@]4(C)[C@H]3CC[C@@]21C,IC50,[1],1100 nM
CC(C)CCC[C@@H](C)[C@H]1C[C@H](O)C2=C3C(=O)C[C@H]4C[C@@H](OC(=O)c5ccccc5)CC[C@]4(C)[C@H]3CC[C@@]21C,IC50,[1],3500 nM
CO[C@@H]1C[C@H]([C@H](C)CCCC(C)C)[C@@]2(C)CC[C@H]3C(=C12)CC[C@H]1C[C@@H](O)CC[C@@]13C,IC50,[1],900 nM
CC(C)CCC[C@@H](C)[C@H]1CC(=O)C2=C3[C@H](F)C[C@H]4C[C@@H](OC(=O)c5ccccc5)CC[C@]4(C)[C@H]3CC[C@@]21C,IC50,[1],200 nM
CC(C)CCC[C@@H](C)[C@H]1Cc2n[n+]([O-])c3c4c2[C@]1(C)CC[C@@H]4[C@@]1(C)CC[C@H](O)C[C@@H]1C3,IC50,[1],< 250 nM
"CC(C)CCC[C@@H](C)[C@H]1Cc2cnc3c4c2[C@]1(C)CC[C@@H]4[C@@]1(C)CC[C@H](O)C[C@@H]1C3 [Compound 15, pyridino 2',3',4',5':7,8,14,15!cholestan-3β-ol]","Cholesterol Levels, HDL","[2]; Day 0, 0.16 mg/rat/day, control 42.2 ± 4.40",39.6 ± 2.06 Mg/100 mL
same,"Cholesterol Levels, Total","[2]; Day 0, 0.16 mg/rat/day, control 95.8 ± 9.79",94.8 ± 5.5 Mg/100 mL
same,"Cholesterol Levels, HDL","[2]; Day 0, 0.33 mg/rat/day, control 42.2 ± 4.40",35.8 ± 1.91 Mg/100 mL
same,"Cholesterol Levels, Total","[2]; Day 0, 0.33 mg/rat/day, control 95.8 ± 9.79",99.0 ± 3.7 Mg/100 mL
same,"Cholesterol Levels, HDL","[2]; Day 0, 1.0 mg/rat/day, control 42.2 ± 4.40",37.8 ± 3.01 Mg/100 mL
same,"Cholesterol Levels, Total","[2]; Day 0, 1.0 mg/rat/day, control 95.8 ± 9.79",88.8 ± 7.78 Mg/100 mL
same,"Cholesterol Levels, HDL","[2]; Day 0, 3.0 mg/rat/day, control 42.2 ± 4.40",35.2 ± 3.14 Mg/100 mL
same,"Cholesterol Levels, Total","[2]; Day 0, 3.0 mg/rat/day, control 95.8 ± 9.79",85.6 ± 6.57 Mg/100 mL
same,"Cholesterol Levels, HDL","[2]; Day 3, 0.16 mg/rat/day, control 41.6 ± 2.62",36.4 ± 1.36 Mg/100 mL
same,"Cholesterol Levels, Total","[2]; Day 3, 0.16 mg/rat/day, control 85.2 ± 2.95",83.6 ± 3.56 Mg/100 mL
same,"Cholesterol Levels, HDL","[2]; Day 3, 0.33 mg/rat/day, control 41.6 ± 2.62",35.8 ± 2.40 Mg/100 mL
same,"Cholesterol Levels, Total","[2]; Day 3, 0.33 mg/rat/day, control 85.2 ± 2.95",75.6 ± 1.94 Mg/100 mL
same,"Cholesterol Levels, HDL","[2]; Day 3, 1.0 mg/rat/day, control 41.6 ± 2.62",34.4 ± 1.69 Mg/100 mL
same,"Cholesterol Levels, Total","[2]; Day 3, 1.0 mg/rat/day, control 85.2 ± 2.95",78.8 ± 2.86 Mg/100 mL
same,"Cholesterol Levels, HDL","[2]; Day 3, 3.0 mg/rat/day, control 41.6 ± 2.62",29.6 ± 0.98 Mg/100 mL
same,"Cholesterol Levels, Total","[2]; Day 3, 3.0 mg/rat/day, control 85.2 ± 2.95",72.2 ± 2.95 Mg/100 mL
same,"Cholesterol Levels, HDL","[2]; Day 7, 0.16 mg/rat/day, control 49.6 ± 4.01",39.8 ± 1.02 Mg/100 mL
same,"Cholesterol Levels, Total","[2]; Day 7, 0.16 mg/rat/day, control 84.8 ± 4.40",69.4 ± 3.66 Mg/100 mL
same,"Cholesterol Levels, HDL","[2]; Day 7, 0.33 mg/rat/day, control 49.6 ± 4.01",36.0 ± 2.55 Mg/100 mL
same,"Cholesterol Levels, Total","[2]; Day 7, 0.33 mg/rat/day, control 84.8 ± 4.40",57.6 ± 2.89 Mg/100 mL
same,"Cholesterol Levels, HDL","[2]; Day 7, 1.0 mg/rat/day, control 49.6 ± 4.01",25.0 ± 1.87 Mg/100 mL
same,"Cholesterol Levels, Total","[2]; Day 7, 1.0 mg/rat/day, control 84.8 ± 4.40",58.0 ± 4.06 Mg/100 mL
same,"Cholesterol Levels, HDL","[2]; Day 7, 3.0 mg/rat/day, control 49.6 ± 4.01",15.4 ± 1.40 Mg/100 mL
same,"Cholesterol Levels, Total","[2]; Day 7, 3.0 mg/rat/day, control 84.8 ± 4.40",46.4 ± 2.23 Mg/100 mL
CC(C)CCC[C@@H](C)[C@H]1CC(=O)C2=C3CC[C@H]4C[C@@H](O)CC[C@]4(C)[C@H]3CC[C@@]21C [drawing 26],IC50,[1],1400 nM
CC(C)CCC[C@@H](C)[C@H]1Cc2nnc3c4c2[C@]1(C)CC[C@@H]4[C@@]1(C)CC[C@H](O)C[C@@H]1C3 [drawing 35],IC50,[1],90 nM
CC(C)CCC[C@@H](C)[C@H]1Cc2cnc3c4c2[C@]1(C)CC[C@@H]4[C@@]1(C)CC[C@H](O)C[C@@H]1C3 [drawing 39],IC50,[1],50 nM

# Source: patent publication US5510340A, “Antihypercholesterolemic compounds and related pharmaceutical compositions and methods of use” (SRI International, priority 1992, dated 1996)
